Values quoted from earlier work, collected in patent US9439853B2, “Form of administration of enkephalinase inhibitor” (BIOPROJET, priority 2010, dated 2016).

Conditions: for ondansetron the water phase of the suspension

SMILES	solubility in water
CC(=O)SCC(Cc1ccccc1)C(=O)NCC(=O)OCc1ccccc1 (centres unmarked) [Racecadotril]	insoluble in water
Cc1nccn1CC1CCc2c(c3ccccc3n2C)C1=O (centres unmarked) [ondansetron]	soluble in the water phase of the suspension
